Assay results: paper PMC10820527, “Synthesis, Characterization, and Investigation of Anti-Inflammatory and Cytotoxic Activities of Novel Thiourea Derivatives of Naproxen” (Pharmaceutics, 2023)

What was measured:
[1] = tested on: carrageenan-induced rat paw edema; assay: Carrageenan-induced rat paw edema model; format: in vivo; settings: for Rat Paw Thickness: mean ± SD; for inhibition in vivo at 2.5 mg/kg / inhibition in vivo at 5 mg/kg / inhibition in vivo at 10 mg/kg: Rattus norvegicus
Description: The Carrageenan-induced rat paw edema model was used to assess the anti-inflammatory potential of novel compounds 8–14. Induction of inflammation was performed in all animals by intraplantar injection of […] 0.5% carrageenan saline into the left hind paw.
Animals (n = 200) were randomly divided into the following groups: control groups, that received either 1% DMSO or naproxen, and experimental groups, that received the novel compounds 8–14.
Control groups included DMSO and naproxen groups. Rats belonging to the DMSO group received 1% DMSO in the same volume as the compounds 8–14, 60 min before carrageenan injection. Moreover, naproxen groups included rats that were subjected to naproxen treatment in three doses: 2.5 mg/kg, 5 mg/kg, and 10 mg/kg. Naproxen was applied in the same manner as 1% DMSO.
Experimental groups included rats that were treated with compounds 8–14 and they were divided into three subgroups depending on the applied dose: 2.5 mg/kg, 5 mg/kg, and 10 mg/kg. The examined compounds were dissolved in 1% DMSO prior to treatment and applied to rats 60 min before inducing inflammation, i.e., before carrageenan injection. Doses of naproxen and investigated compounds were defined based on our previously published research.
In order to quantify the anti-inflammatory effects of the tested compounds, left paw thickness was measured at specific time points: prior to inflammation induction (moment 0) and 1, 2, 3, and 4 h (moments 1, 2, 3, and 4) following carrageenan injection. Tissue thickness was measured in the middle of the rat paw using a Digital Vernier caliper (Aerospace, China). The percentage of inhibition of paw edema after treatment with different agents was calculated according to the formula, Equation (2):% Inhibition = 100 × [1 − (Yt/Yc)](2) where Yt = average increase in paw thickness in the treated group of rats between two measurement moments, and Yc = average increase in paw thickness in the untreated group of rats between two measurement moments.

[2] = tested on: HeLa; assay: MTT cytotoxicity assay, HeLa; format: cell-based, human; settings: for IC50: Homo sapiens, HeLa, mean ± SD
Description: Three cancer cell lines (MDA-MB-231, HCT116 and HeLa; i.e., human breast cancer cells, human colorectal cancer cells, and human cervical cancer cells, respectively), and one non-malignant fibroblast MRC-5 cell line (control) were used in this study. The American Type Cell Collection (ATCC, Manassas, VA, USA) provided all examined cell lines. The cells were grown in a complete medium made up of high-glucose DMEM media supplemented with 10% fetal bovine serum and […] L-glutamine (both from Sigma-Aldrich, USA). The cells were cultured in 25 cc flasks (Thermo Fischer Scientific, Waltham, MA, USA) at 37 °C with 100% humidity in a 5% CO2 atmosphere.
The MTT test was used to assess the cytotoxicity of compounds 1–14 [44]. The cytotoxicity of naproxen was also investigated due to its clinical use and structural similarity. Throughout the exponential development period, cells were taken from culture flasks and counted, and 5 × 10^3 cells/well were planted into 96-well culture plates. Following that, the cell lines were treated with varying doses of the investigated chemicals (1–14), naproxen ([…]), and fresh complete media as a control. All evaluated cells were incubated for 24, 48, and 72 h at 37 °C in an environment containing 5% CO2 and 100% humidity. Following incubation, each well’s culture media was taken out, each well received an addition of MTT solution at a final concentration of 0.5 mg/mL, and the cells were left to incubate for an additional four hours. The MTT solution was then withdrawn carefully, and the formazan crystals were dissolved in DMSO. After shaking the plates for 10 min, absorbance at 595 nm was measured using a multiplate reader (Zenyth 3100, Anthos Labtec Instruments, Salzburg, Austria). All concentrations of the tested compounds were performed in three separate wells of the microtiter plates and in three separate experiments. The results were reported as a ratio to the control value, untreated cells. IC50 values were also determined using Microsoft Office Excel 2021. The percentage of viable cells was estimated by dividing the readout absorbance value in the wells containing treated cells by the average absorbance value measured in the wells containing untreated cells, and multiplying the result by 100 [44]. % of the viable cells = ((absorbance of treated cell-absorbance of blank)/(absorbance of untreated cell-absorbance of blank)) × 100(3)

[3] = 2.5 mg/kg, 1 h after carrageenan
[4] = 2.5 mg/kg, 2 h after carrageenan
[5] = 2.5 mg/kg, 3 h after carrageenan
[6] = 2.5 mg/kg, 4 h after carrageenan
[7] = 5.0 mg/kg, 1 h after carrageenan
[8] = 5.0 mg/kg, 2 h after carrageenan
[9] = 5.0 mg/kg, 3 h after carrageenan
[10] = 5.0 mg/kg, 4 h after carrageenan
[11] = 10.0 mg/kg, 1 h after carrageenan
[12] = 10.0 mg/kg, 2 h after carrageenan
[13] = 10.0 mg/kg, 3 h after carrageenan
[14] = 10.0 mg/kg, 4 h after carrageenan

Compound	Rat Paw Thickness [1, 3]	Rat Paw Thickness [1, 4]	Rat Paw Thickness [1, 5]	Rat Paw Thickness [1, 6]	Rat Paw Thickness [1, 7]	Rat Paw Thickness [1, 8]	Rat Paw Thickness [1, 9]	Rat Paw Thickness [1, 10]	Rat Paw Thickness [1, 11]	Rat Paw Thickness [1, 12]	Rat Paw Thickness [1, 13]	Rat Paw Thickness [1, 14]	inhibition in vivo at 2.5 mg/kg ([1]; 2.5 mg/kg, 1 h)	inhibition in vivo at 2.5 mg/kg ([1]; 2.5 mg/kg, 2 h)	inhibition in vivo at 2.5 mg/kg ([1]; 2.5 mg/kg, 3 h)	inhibition in vivo at 2.5 mg/kg ([1]; 2.5 mg/kg, 4 h)	inhibition in vivo at 5 mg/kg ([1]; 5.0 mg/kg, 1 h)	inhibition in vivo at 5 mg/kg ([1]; 5.0 mg/kg, 2 h)	inhibition in vivo at 5 mg/kg ([1]; 5.0 mg/kg, 3 h)	inhibition in vivo at 5 mg/kg ([1]; 5.0 mg/kg, 4 h)	also measured
COc1ccc2cc([C@H](C)C(=O)NC(=S)Nc3ccccc3F)ccc2c1 [Compound 12, (S)-N-((2-fluorophenyl)carbamothioyl)-2-(6-methoxynaphthalen-2-yl)propanamide]	6.83 ± 0.38 mm	6.43 ± 0.40 mm	6.00 ± 0.30 mm	5.53 ± 0.06 mm	6.07 ± 0.64 mm	5.83 ± 0.49 mm	5.57 ± 0.38 mm	5.03 ± 0.12 mm	6.33 ± 0.21 mm	6.03 ± 0.06 mm	5.60 ± 0.10 mm	5.17 ± 0.21 mm	8.84%	16.7%	24.3%	37.8%	18.4%	19.7%	18.9%	35.6%	inhibition in vivo at 10 mg/kg ([1]; 10.0 mg/kg, 1 h): 19.7%; inhibition in vivo at 10 mg/kg ([1]; 10.0 mg/kg, 2 h): 24.2%; inhibition in vivo at 10 mg/kg ([1]; 10.0 mg/kg, 3 h): 33.3%; inhibition in vivo at 10 mg/kg ([1]; 10.0 mg/kg, 4 h): 46.7%; Cytotoxic effect against HeLa cells (in words) [2]: moderate cytotoxic effect; IC50 ([2]; 24 h): 135 ± 16.8 µM; IC50 ([2]; 48 h): 103 ± 9.5 µM; IC50 ([2]; 72 h): 72.8 ± 6.9 µM
COC(=O)[C@H](Cc1ccccc1)NC(=S)NC(=O)[C@@H](C)c1ccc2cc(OC)ccc2c1 [Compound 13, Methyl (((S)-2-(6-methoxynaphthalen-2-yl)propanoyl)carbamothioyl)phenylalaninate]	7.0 ± 0.10 mm	6.60 ± 0.10 mm	6.13 ± 0.12 mm	5.83 ± 0.06 mm	6.90 ± 0.10 mm	6.43 ± 0.32 mm	5.90 ± 0.36 mm	5.47 ± 0.23 mm	6.77 ± 0.42 mm	6.40 ± 0.36 mm	6.10 ± 0.36 mm	5.80 ± 0.30 mm	6.12%	13.6%	22.5%	24.4%	-0.68%	9.09%	20.7%	31.1%	inhibition in vivo at 10 mg/kg ([1]; 10.0 mg/kg, 1 h): 19.7%; inhibition in vivo at 10 mg/kg ([1]; 10.0 mg/kg, 2 h): 27.3%; inhibition in vivo at 10 mg/kg ([1]; 10.0 mg/kg, 3 h): 29.7%; inhibition in vivo at 10 mg/kg ([1]; 10.0 mg/kg, 4 h): 33.3%; IC50 ([2]; 24 h): > 200 µM; IC50 ([2]; 48 h): > 200 µM; IC50 ([2]; 72 h): > 200 µM
COC(=O)[C@H](Cc1c[nH]c2ccccc12)NC(=S)NC(=O)[C@@H](C)c1ccc2cc(OC)ccc2c1 [Compound 14, Methyl (((S)-2-(6-methoxynaphthalen-2-yl)propanoyl)carbamothioyl)tryptophanate]	6.53 ± 0.42 mm	6.23 ± 0.25 mm	5.90 ± 0.26 mm	5.33 ± 0.49 mm	6.77 ± 0.38 mm	6.53 ± 0.42 mm	6.17 ± 0.25 mm	5.80 ± 0.10 mm	7.03 ± 0.21 mm	6.47 ± 0.06 mm	6.03 ± 0.25 mm	5.67 ± 0.21 mm	12.9%	16.7%	18.9%	37.8%	25.2%	27.3%	33.3%	42.2%	inhibition in vivo at 10 mg/kg ([1]; 10.0 mg/kg, 1 h): 11.6%; inhibition in vivo at 10 mg/kg ([1]; 10.0 mg/kg, 2 h): 27.3%; inhibition in vivo at 10 mg/kg ([1]; 10.0 mg/kg, 3 h): 36.9%; inhibition in vivo at 10 mg/kg ([1]; 10.0 mg/kg, 4 h): 46.7%; IC50 ([2]; 24 h): > 200 µM; IC50 ([2]; 48 h): 151 ± 14.2 µM; IC50 ([2]; 72 h): 110 ± 11.5 µM
